Source: US20080318925A1 (ASTRAZENECA AB, priority 2007, published 2008)

These compounds were tested against T1, GABAA2 receptors (α2, β3, γ3 receptor subunits transfected into Sf9 cells) (Homo sapiens, UniProt P47869+Q99928) (assay: GABAA2 binding method ([3H]-flunitrazepam displacement)). Conditions: [3H]-flunitrazepam ~2 nM, Sf9 membranes, 1 hr at 4° C.
T1 construct: host or cells: Sf9 cells (membranes)
T1 sequence (P47869 29-451): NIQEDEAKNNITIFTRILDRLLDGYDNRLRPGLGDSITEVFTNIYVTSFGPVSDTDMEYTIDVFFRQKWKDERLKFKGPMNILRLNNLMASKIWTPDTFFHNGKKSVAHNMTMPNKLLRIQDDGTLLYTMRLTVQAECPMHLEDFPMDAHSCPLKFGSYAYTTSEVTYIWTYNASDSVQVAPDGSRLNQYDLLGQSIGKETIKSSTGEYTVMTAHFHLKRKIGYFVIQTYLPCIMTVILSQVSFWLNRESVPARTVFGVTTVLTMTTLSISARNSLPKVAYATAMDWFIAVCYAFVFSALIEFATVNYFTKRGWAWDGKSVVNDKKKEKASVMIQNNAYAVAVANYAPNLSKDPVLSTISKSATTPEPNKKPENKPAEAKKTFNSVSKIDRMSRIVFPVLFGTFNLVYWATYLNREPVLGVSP
T1 sequence (P28472 26-473 partner): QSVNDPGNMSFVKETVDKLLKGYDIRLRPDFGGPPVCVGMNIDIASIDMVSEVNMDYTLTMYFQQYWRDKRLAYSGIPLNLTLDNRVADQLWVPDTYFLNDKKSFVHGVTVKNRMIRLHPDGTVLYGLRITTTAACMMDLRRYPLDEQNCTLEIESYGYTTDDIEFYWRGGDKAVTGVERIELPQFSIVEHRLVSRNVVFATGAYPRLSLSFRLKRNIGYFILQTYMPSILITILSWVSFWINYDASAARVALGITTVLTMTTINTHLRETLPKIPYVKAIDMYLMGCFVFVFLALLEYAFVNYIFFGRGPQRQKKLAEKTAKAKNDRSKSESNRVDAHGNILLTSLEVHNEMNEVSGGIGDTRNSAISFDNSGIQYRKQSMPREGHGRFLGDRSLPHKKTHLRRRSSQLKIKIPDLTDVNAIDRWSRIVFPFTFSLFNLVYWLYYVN
T1 sequence (Q99928 18-467): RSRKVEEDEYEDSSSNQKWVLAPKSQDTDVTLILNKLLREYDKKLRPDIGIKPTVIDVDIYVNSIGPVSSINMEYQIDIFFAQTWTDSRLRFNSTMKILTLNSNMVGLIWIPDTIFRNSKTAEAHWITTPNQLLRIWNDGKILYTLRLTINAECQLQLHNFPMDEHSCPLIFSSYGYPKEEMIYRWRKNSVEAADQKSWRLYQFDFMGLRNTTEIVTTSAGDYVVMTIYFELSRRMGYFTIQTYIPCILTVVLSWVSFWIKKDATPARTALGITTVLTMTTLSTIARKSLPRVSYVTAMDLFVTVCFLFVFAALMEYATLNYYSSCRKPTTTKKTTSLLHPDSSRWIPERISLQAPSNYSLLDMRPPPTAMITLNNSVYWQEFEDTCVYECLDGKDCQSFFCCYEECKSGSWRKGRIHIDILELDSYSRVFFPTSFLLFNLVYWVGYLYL
Method: In some embodiments, the binding test was directed to a subtype of GABAA receptors, such as GABAA1 receptors (i.e., those containing the α1 subunit), GABAA2 receptors (i.e., those containing the α2 subunit), GABAA3 receptors (i.e., those containing the α3 subunit) and GABAA5 receptors (i.e., those containing the α5 subunit).
• Assay and Wash Buffer: 50 mM Tris-Citrate, 200 mM NaCl, pH 7.8 Compounds at 10 mM in DMSO: Put 75 μl in column 1 of compound plate.
Flumazenil, 10 mM (for NSB)
[^3H]-Flunitrazepam (Cat #NET567): Prepare 10× stock=20 nM, [F} in assay=˜2 nM
1. […] Add 5 ul of 30 uM flumazenil to wells 12 D-E for 50% control wells.
2. Spot 2 μl of compound dilutions into dry plate (Automation Program 3). Manually spot 2 μl 10 mM flumazenil into wells 12 F-H for nonspecific control.
3. Make 1:100 dilution in assay buffer (2 μl into 200 μl) and dispense 25 μl compound into assay plates (Automation Program 4).
4. Dispense 200 μl membranes into assay plate (Automation Program 5).
5. Add 25 μl [^3H]-Flunitrazepam (Automation Program 6). Incubate for 1 hr at 4° C.
6. Collect membranes on a cell harvester onto GF/B filter plates (pre-wet with dH2O and wash 5× 400 μl/well, with cold assay buffer. (First 3 washes are considered hot; last two are cold.)
7. Dry plates for 2-3 hours at RT.
8. Add 40 μl Microscint 40/well (Automation Program 7); seal plates. Count on a TopCount.
Data is analyzed by calculating percent of control, IC50, and Ki in an XLfit template. The following formula is used in the templates: […]

Ki	SMILES
0.615 nM	CCCNC(=O)c1nnc2c(-c3cccc(C)c3C)c(F)ccc2c1N
0.624 nM	CCCNC(=O)c1nnc2c(-c3ccc(OC)cc3C(F)(F)F)c(F)ccc2c1N
0.698 nM	COc1cccc(F)c1-c1cccc2c(N)c(C(=O)NC3CC3)nnc12
0.71 nM	CCCNC(=O)c1nnc2c(-c3cc(Cl)ccc3Cl)cccc2c1N
0.735 nM	CCCNC(=O)c1nnc2c(-c3cc(F)ccc3C)c(F)ccc2c1N
0.852 nM	CCCNC(=O)c1nnc2c(-c3cc(C)ccc3F)cccc2c1N
0.918 nM	CCCNC(=O)c1nnc2c(-c3cnc(OC)nc3OC)c(F)ccc2c1N
0.937 nM	CCCNC(=O)c1nnc2c(-c3cc(C)ccc3OC)c(F)ccc2c1N
0.941 nM	CCCNC(=O)c1nnc2c(-c3cccc(OC)c3F)c(F)ccc2c1N
0.98 nM	CCCNC(=O)c1nnc2c(-c3cc(F)ccc3OC)c(F)ccc2c1N
0.996 nM	CCCNC(=O)c1nnc2c(-c3cc(F)ccc3F)cccc2c1N
1 nM	CCCNC(=O)c1nnc2c(-c3ccccc3)c(F)ccc2c1N
1 nM	COc1ccc(-c2cccc3c(N)c(C(=O)NC4CC4)nnc23)c(OC)n1
1.03 nM	CCCNC(=O)c1nnc2c(-c3ccc(F)cc3OCC)c(F)ccc2c1N
1.11 nM	CCCNC(=O)c1nnc2c(-c3cc(Cl)ccc3OC)cccc2c1N
1.13 nM	CCCNC(=O)c1nnc2c(-c3cccnc3F)cccc2c1N
1.18 nM	CCCNC(=O)c1nnc2c(-c3cccc(C#N)c3)cccc2c1N

Ki	SMILES
1.25 nM	CCCNC(=O)c1nnc2c(-c3cc(OC)ccc3Cl)c(F)ccc2c1N
1.31 nM	CCCNC(=O)c1nnc2c(-c3cc(C)ccc3C)c(F)ccc2c1N
1.34 nM	CCCNC(=O)c1nnc2c(-c3cc(Cl)ccc3Cl)c(F)ccc2c1N
1.36 nM	CCCNC(=O)c1nnc2c(-c3cc(C(F)(F)F)ccc3Cl)cccc2c1N
1.49 nM	CCCNC(=O)c1nnc2c(-c3cc(F)c(OC)cc3F)cccc2c1N
1.67 nM	CCCNC(=O)c1nnc2c(-c3ccncc3)cccc2c1N
1.67 nM	CCCNC(=O)c1nnc2c(-c3ccc(C)nc3F)cccc2c1N
1.68 nM	CCCNC(=O)c1nnc2c(-c3cnccc3C)cccc2c1N
1.72 nM	CCCNC(=O)c1nnc2c(-c3ccc(F)cc3F)cccc2c1N
1.73 nM	CCCNC(=O)c1nnc2c(-c3cc(OC)ccc3F)cccc2c1N
1.82 nM	CCCNC(=O)c1nnc2c(-c3cccc(Cl)c3Cl)cccc2c1N
1.84 nM	CCCCNC(=O)c1nnc2c(-c3cnccc3OC)cccc2c1N
2.07 nM	COc1ccc(-c2cccc3c(N)c(C(=O)NC4CC4)nnc23)c(OC)c1
2.1 nM	CCCNC(=O)c1nnc2c(-c3cccnc3OC)cccc2c1N
0.927 nM	COc1ccc(-c2cccc3c(N)c(C(=O)NC4CCC4)nnc23)c(OC)c1
4.02 nM	Cc1ccc(-c2cccc3c(N)c(C(=O)NC4CC4)nnc23)cn1
4.54 nM	CCNC(=O)c1nnc2c(-c3ccc(OC)cc3OC)cccc2c1N
